Assay [1] deals with T1, human EP4 receptor (Homo sapiens, UniProt P35408).
T1 construct: expressed in transfected cells
Kind of assay: EP4 radioligand binding assay ([^3H]PGE2), human receptor. The following applies: for Ki: read-out: Ki CR6086. The source says:
The complementary DNA (cDNA) clone of the human EP4 receptor (hEP4R; NM_000958.2) was obtained from Thermo Fisher Scientific (Ultimate ORF Clone Collection, clone ID IOH46525; Waltham, MA, USA). The coding sequence was subcloned in expression vector pcDNATM6.2/V5-DEST by using Invitrogen Gateway technology (Thermo Fisher Scientific). Human embryonic kidney cells 293 (HEK293) were obtained from the American Type Culture Collection (ATCC; Manassas, VA, USA) and transfected with expression vector for hEP4R according to the method described in the FuGENE 6 Transfection Reagent technical manual (Promega, Madison, WI, USA). The clones overexpressing the protein were selected for Blasticidin S HCl (Thermo Fisher Scientific) resistance. The selected clone was grown in DMEM containing 10% FBS and 10 μg/ml Blasticidin S HCl (selection medium) at 37 °C in a humidified atmosphere of 5% CO2 in air.
Membranes expressing the human EP4 receptor were prepared from stably transfected HEK293 cell line. Cells were grown adherent in DMEM with GlutaMAX-I (Thermo Fisher Scientific) containing 10% FBS and Blasticidin 10 μg/ml at 37 °C in a humidified atmosphere with 5% CO2. Membranes expressing the mouse or rat EP4 receptor were prepared from transiently transfected HEK293 cells. Cells were grown adherent in DMEM with GlutaMAX-I containing 10% FBS at 37 °C in a humidified atmosphere with 5% CO2. For the preparation of all cell membranes, culture medium was aspirated from 150-cm^2 flasks into which cells were seeded. Cell monolayers were then washed with 10 ml of hypotonic lysis buffer (Tris 5 mM + ethylenediaminetetraacetic acid [EDTA] 5 mM, pH 7.4), detached, and lysed with 10 ml + 10 ml of lysis buffer by mechanical scraping. Lysates were vortexed for 30 seconds and centrifuged at 40,000 × g for 22 minutes at 4 °C. Pellets were stored at −80 °C until use. Protein content of the cell membrane suspension was determined using bovine serum albumin (BSA) as a standard.
Experimental procedures were performed according to the method of Abramovitz et al.. [^3H]PGE2 (PerkinElmer, Waltham, MA, USA) binding assays for recombinant EP4 receptors were performed in 10 mM 2-(N-morpholino)ethanesulphonic acid-KOH buffer, pH 6, containing 10 mM MgCl2 and 1 mM CaCl2. Ten micrograms of protein from membrane fractions were incubated in a total volume of 0.1 ml with 1–1.5 nM [^3H]PGE2. To determine the total binding or non-specific binding, 1% dimethyl sulphoxide (DMSO) or 1 μM PGE2 was added to the reaction mixture. Incubation was carried out in 96-well multi-well plates for 90 minutes at room temperature prior to separation of the bound and free radioligand by rapid filtration on glass-fibred filters (UniFilter-96 GF/B; PerkinElmer) pre-soaked in 0.3% polyethylenimine. […] The residual [^3H]PGE2 binding was determined using a solid scintillation counter (TopCount; PerkinElmer) after at least 1 h of stabilisation. In saturation binding studies, isotherm-binding curves generated with six to eight different concentrations of [^3H]PGE2 (from 0.5 to 25 nM) were evaluated. […]
Specific binding to the receptors was defined as the difference between total binding and non-specific binding, as determined in the presence of an excess of unlabelled ligand. Binding isotherm curves were analysed to determine the equilibrium binding parameters, affinity (dissociation constant [Kd]) and maximal binding capacity of labelled ligand. Competition curves were analysed to assess the half-maximal inhibitory concentration (IC50). […]

Assay [2] has as its target T1, human EP4 receptor. Kind of assay: AlphaScreen cAMP functional assay, PGE2-stimulated HEK293 membranes. The class given is biochemical. The method, then:
In studies of CR6086 as a functional receptor antagonist, we took advantage of the evidence that activated EP4 receptors couple with Gs proteins to stimulate adenylyl cyclase and increase cyclic adenosine monophosphate (cAMP) cellular levels. Cell membranes prepared from the HEK293 cell line were suspended in 1 ml of stimulation buffer (Hanks’ balanced salt solution 1× + BSA 0.1% + 3-isobutyl-1-methylxanthine 0.5 mM + HEPES 5 mM + MgCl2 10 mM + guanosine triphosphate 1 nM + guanosine diphosphate 10 μM + adenosine triphosphate 100 μM, pH 7.4). The AlphaScreen cAMP functional assay (PerkinElmer) was used according to the manufacturer’s instructions. Because AlphaScreen beads are light-sensitive, the cAMP assay was performed under subdued laboratory lighting, and any incubation involving the beads was carried out in the dark. The assay is based on the competition between endogenous cAMP and exogenously added biotinylated cAMP. The capture of cAMP is achieved by using a specific antibody conjugated to […]. Cell membranes were dispensed into white 384-well microplates at a final concentration of 1 μg per well. […] After 1 h of incubation, the plate was read using the EnVision platform (PerkinElmer) to determine the cAMP level (excitation 680 nm, emission 520 or 620 nm). […]

The target in another assay is 5-HT2C (Homo sapiens, UniProt P28335). As to the kind of experiment: Serotonin receptor 5-HT2C binding. The following applies: [^3H]mesulergine, Human recombinant HEK-293 cells, read-out: CR6086 Activity at 10µM.
Chain of 5-HT2C (P28335 33-458): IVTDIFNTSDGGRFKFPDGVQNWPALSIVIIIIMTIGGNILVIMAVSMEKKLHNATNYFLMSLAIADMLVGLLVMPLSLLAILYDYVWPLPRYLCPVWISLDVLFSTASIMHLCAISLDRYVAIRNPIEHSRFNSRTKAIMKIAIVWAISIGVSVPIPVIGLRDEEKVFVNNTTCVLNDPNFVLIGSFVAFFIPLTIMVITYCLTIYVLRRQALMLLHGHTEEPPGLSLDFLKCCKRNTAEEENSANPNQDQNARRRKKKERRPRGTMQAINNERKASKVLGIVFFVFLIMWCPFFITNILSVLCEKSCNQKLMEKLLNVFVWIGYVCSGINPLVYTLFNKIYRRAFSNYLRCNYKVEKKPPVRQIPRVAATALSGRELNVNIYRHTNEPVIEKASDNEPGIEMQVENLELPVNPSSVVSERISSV
For a further assay, the target named is PPARγ (Homo sapiens, UniProt P37231). As to the kind of experiment: Nuclear receptor PPARγ binding. The settings on record: [^3H]rosiglitazone, Human recombinant E.Coli, read-out: CR6086 Activity at 10µM.
Chain of PPARγ (P37231 whole entry): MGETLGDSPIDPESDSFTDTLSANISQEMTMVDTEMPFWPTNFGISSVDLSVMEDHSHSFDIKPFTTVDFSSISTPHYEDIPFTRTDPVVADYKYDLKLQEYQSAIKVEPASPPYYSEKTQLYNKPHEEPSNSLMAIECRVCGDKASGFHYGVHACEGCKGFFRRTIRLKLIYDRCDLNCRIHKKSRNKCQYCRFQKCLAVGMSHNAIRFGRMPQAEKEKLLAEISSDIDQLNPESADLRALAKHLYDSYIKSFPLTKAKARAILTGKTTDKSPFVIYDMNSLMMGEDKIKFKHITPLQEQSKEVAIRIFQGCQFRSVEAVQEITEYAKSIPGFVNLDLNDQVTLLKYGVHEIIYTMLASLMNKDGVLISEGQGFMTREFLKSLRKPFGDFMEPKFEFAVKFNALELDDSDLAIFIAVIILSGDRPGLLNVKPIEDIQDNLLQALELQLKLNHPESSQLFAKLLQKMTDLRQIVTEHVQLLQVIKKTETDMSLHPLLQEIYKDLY
The test system of another assay is Kv channel. Kind of assay: Ion channel Kv binding. The settings on record: [^125I]α-dendrotoxin, Rat cerebral cortex.
A further assay deals with SKCa channel. As to the kind of experiment: Ion channel SKCa binding. The settings on record: [^125I]apamin, Rat cerebral cortex.
Setting [3] is: equilibrium binding, CR6086 50 nM.

Like-named read-outs stand apart in the source and are kept apart here.

T1 sequence (P35408 whole entry): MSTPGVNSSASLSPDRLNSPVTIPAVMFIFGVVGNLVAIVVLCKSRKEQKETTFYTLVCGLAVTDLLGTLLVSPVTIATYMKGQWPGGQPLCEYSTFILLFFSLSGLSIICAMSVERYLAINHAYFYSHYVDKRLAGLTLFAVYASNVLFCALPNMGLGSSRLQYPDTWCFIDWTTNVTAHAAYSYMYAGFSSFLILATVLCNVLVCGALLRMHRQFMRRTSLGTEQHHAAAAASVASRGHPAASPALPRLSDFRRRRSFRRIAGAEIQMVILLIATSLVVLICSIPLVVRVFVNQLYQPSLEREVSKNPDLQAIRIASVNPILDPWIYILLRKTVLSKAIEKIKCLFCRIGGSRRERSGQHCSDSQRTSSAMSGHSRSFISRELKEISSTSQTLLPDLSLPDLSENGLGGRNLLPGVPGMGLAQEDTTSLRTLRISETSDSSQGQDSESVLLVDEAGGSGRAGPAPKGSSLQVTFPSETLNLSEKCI

On to `O=C([O-])c1ccc(C2(NC(=O)[C@H]3CC4(CCN3Cc3ccc(C(F)(F)F)cc3)CC4)CC2)cc1.[Na+]` [CR6086, Sodium (R)-4-(1-(6-(4-(trifluoromethyl)benzyl)-6-azaspiro[2.5]octane-5-carboxamido)cyclopropyl)benzoate], for which the Ki on human EP4 receptor [1] ([^3H]PGE2 displacement, HEK293 membranes, absence of BSA) stood at 16.6 nM; on human EP4 receptor [1] (after addition of 0.5% BSA in the assay buffer), 15.5 nM. Moreover, the “change in [^3H]PGE2 affinity in the presence of CR6086” value on human EP4 receptor [1] (setting [3]) was “fourfold decrease”. On human EP4 receptor [1] (setting [3]), the “change in maximal binding capacity of [^3H]PGE2” value was “+20%”. Further, the type of antagonism entry on human EP4 receptor [1] (setting [3]) is reported as “competitive antagonist”. Also, on human EP4 receptor [2] (3 nM PGE2, HEK293 membranes, read-out: IC50 on PGE2-stimulated cAMP production), the IC50 came out at 22 nM. Moreover, the functional behaviour result on human EP4 receptor [2] (cAMP functional assays) is “pure EP4 antagonist”. The inhibition at 10 µM on 5-HT2C and at PPARγ was less than 20% throughout. Further, the “CR6086 Activity at 10µM” value with Kv channel and in the assay with SKCa channel was “IN (IN = < 20% displacement or inhibition (all tables))” in each case.

The values are drawn from PMC5831858, “Pharmacological characterisation of CR6086, a potent prostaglandin E2 receptor 4 antagonist, as a new potential disease-modifying anti-rheumatic drug” (Arthritis Research & Therapy, 2018).
